Measured values reported in ChEMBL document CHEMBL1201862, “PubChem BioAssay data set” (2004).
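Values below derive from 48-hour exposures of cells grown in 96-well plates, with endpoints linearly interpolated between the two concentrations bracketing the appropriate inhibition level. GI50: concentration for 50% inhibition of growth.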 Active and inactive are the calls of the source. Rule as the data show it: active = GI50 up to about 1.1 µM and inactive = higher.

What was measured:
Test in all cases: NCI anticancer screen, dose series, 48 h
[1] = tested on: SF-268
[2] = tested on: DU-145
[3] = tested on: SN12C
[4] = tested on: NCI-H23
[5] = tested on: K562
[6] = tested on: UACC-257
[7] = tested on: RPMI-8226
[8] = tested on: CCRF-CEM
[9] = tested on: T47D
[10] = tested on: SNB-75
[11] = tested on: A498
[12] = tested on: SNB-19
[13] = tested on: RXF 393
[14] = tested on: SK-MEL-28
[15] = tested on: ACHN
[16] = tested on: NCI-H226
[17] = tested on: MDA-N
[18] = tested on: OVCAR-8
[19] = tested on: NCI-H460
[20] = tested on: 786-0

| Structure (SMILES) | GI50 [1] | GI50 [2] | GI50 [3] | GI50 [4] | GI50 [5] | GI50 [6] | GI50 [7] | GI50 [8] | GI50 [9] | GI50 [10] | GI50 [11] | GI50 [12] | GI50 [13] | GI50 [14] | GI50 [15] | GI50 [16] | GI50 [17] | GI50 [18] | GI50 [19] | GI50 [20] |
| --- | --- | --- | --- | --- | --- | --- | --- | --- | --- | --- | --- | --- | --- | --- | --- | --- | --- | --- | --- | --- |
| Cc1ccc(S(=O)(=O)N2CCSCCSCCSCCSCC2)cc1 | 34.5 µM (inactive) | > 100 µM (inactive) | > 58.5 µM (inactive) | 40.1 µM (inactive) | > 71 µM (inactive) | > 91.2 µM (inactive) | 77.1 µM (inactive) | 64.3 µM (inactive) | 36.3 µM (inactive) | 11.9 µM (inactive) | > 44.2 µM (inactive) | 24.8 µM (inactive) | > 27.9 µM (inactive) | > 88.5 µM (inactive) | > 58.3 µM (inactive) | > 49.9 µM (inactive) | > 89.7 µM (inactive) | 24.3 µM (inactive) | 56.4 µM (inactive) | 21.1 µM (inactive) |
| COC1/C=C/C(C)C(OC)CC(O)/C=C/C(C)C(C(C)C(OC)C(C)CCC(=O)C(C)C(C/C=C/N(C)C=O)OC)OC(=O)/C=C/C=C(\C)CC(OC)CC2=CC(=O)O[C@@H](C(C)C(OC)C1)[C@H]2O (stereo not given in full) | 0.153 µM (active) | 0.544 µM (active) | 0.379 µM (active) | 0.26 µM (active) | 17.1 µM (inactive) | 0.11 µM (active) | 0.0536 µM (active) | 0.621 µM (active) | 0.912 µM (active) | 0.0697 µM (active) | 0.056 µM (active) | 0.0962 µM (active) | 0.0735 µM (active) | 0.0767 µM (active) | 0.091 µM (active) | 0.122 µM (active) | 0.0951 µM (active) | 0.16 µM (active) | 0.0395 µM (active) | 0.0977 µM (active) |
| CCOC(=O)/C(C(N)=O)=C(/O)c1cnccn1 | > 100 µM (inactive) | > 100 µM (inactive) | > 100 µM (inactive) | > 100 µM (inactive) | > 100 µM (inactive) | > 100 µM (inactive) | > 100 µM (inactive) | > 100 µM (inactive) | > 100 µM (inactive) | > 100 µM (inactive) | > 100 µM (inactive) | > 100 µM (inactive) | > 100 µM (inactive) | > 100 µM (inactive) | > 100 µM (inactive) | > 100 µM (inactive) | > 100 µM (inactive) | > 100 µM (inactive) | > 100 µM (inactive) | > 100 µM (inactive) |
| Clc1cccc(N2CCN(CCN3CCc4c([nH]c5ccccc45)C3c3cccnc3)CC2)c1 (stereo not given) | > 100 µM (inactive) | > 31.6 µM (inactive) | 43.6 µM (inactive) | 78.5 µM (inactive) | 10.9 µM (inactive) | > 77.4 µM (inactive) | 30.6 µM (inactive) | > 40.4 µM (inactive) | 9.38 µM (inactive) | 18.8 µM (inactive) | > 100 µM (inactive) | > 100 µM (inactive) | > 100 µM (inactive) | > 100 µM (inactive) | > 100 µM (inactive) | > 37.3 µM (inactive) | > 100 µM (inactive) | > 61.9 µM (inactive) | 8.75 µM (inactive) | 29.8 µM (inactive) |
| CCOc1ccc(-n2c(=O)n3c(Nc4ccc(Cl)cc4)nc4c(c(=O)n(C)c(=O)n4C)n3c2=O)cc1 | 34.8 µM (inactive) | 40.9 µM (inactive) | 27.2 µM (inactive) | 27.5 µM (inactive) | 29.6 µM (inactive) | 23.5 µM (inactive) | 24 µM (inactive) | 20.8 µM (inactive) | 39.2 µM (inactive) | 13.7 µM (inactive) | 22.9 µM (inactive) | > 100 µM (inactive) | 26.6 µM (inactive) | 28.2 µM (inactive) | 43.4 µM (inactive) | 22.7 µM (inactive) | 32.7 µM (inactive) | 36.8 µM (inactive) | 19.5 µM (inactive) | 36.6 µM (inactive) |
| COc1cc(C)c(/C=C2/N=C(c3ccccc3)OC2=O)c([N+](=O)[O-])c1OC | > 100 µM (inactive) | > 100 µM (inactive) | > 100 µM (inactive) | > 100 µM (inactive) | > 100 µM (inactive) | > 100 µM (inactive) | > 100 µM (inactive) | 73.6 µM (inactive) | > 100 µM (inactive) | 89.1 µM (inactive) | > 100 µM (inactive) | > 100 µM (inactive) | > 100 µM (inactive) | > 100 µM (inactive) | > 100 µM (inactive) | > 100 µM (inactive) | > 100 µM (inactive) | > 100 µM (inactive) | > 100 µM (inactive) | > 100 µM (inactive) |
| Cc1nc(Cl)c(CBr)c(Cl)n1 | 2.69 µM (inactive) | 2.58 µM (inactive) | 1.73 µM (inactive) | 1.62 µM (inactive) | 0.21 µM (active) | 0.832 µM (active) | 0.889 µM (active) | 0.152 µM (active) | 1.88 µM (inactive) | 1 µM (active) | 11.7 µM (inactive) | 3.68 µM (inactive) | 2.11 µM (inactive) | 1.49 µM (inactive) | 1.71 µM (inactive) | 2.7 µM (inactive) | 1.44 µM (inactive) | 1.72 µM (inactive) | 2.33 µM (inactive) | 0.275 µM (active) |
| COc1cc(O)c2c(c1)OCC1(Cc3cc(OC)c(OC)cc31)C2=O (stereo not given) | > 100 µM (inactive) | > 100 µM (inactive) | > 100 µM (inactive) | 72.9 µM (inactive) | 36.9 µM (inactive) | 43.1 µM (inactive) | 37.9 µM (inactive) | > 100 µM (inactive) | 11.9 µM (inactive) | 78.3 µM (inactive) | > 100 µM (inactive) | > 100 µM (inactive) | > 100 µM (inactive) | > 100 µM (inactive) | > 100 µM (inactive) | 46 µM (inactive) | 49.9 µM (inactive) | > 100 µM (inactive) | > 100 µM (inactive) | > 100 µM (inactive) |
| O=C(c1ccccc1)N1C(=O)N(c2ccccc2)C(=N/c2ccccc2)/C1=N\c1ccccc1 | > 100 µM (inactive) | > 100 µM (inactive) | > 100 µM (inactive) | > 100 µM (inactive) | 7.36 µM (inactive) | 37.8 µM (inactive) | > 100 µM (inactive) | 50.7 µM (inactive) | > 100 µM (inactive) | > 100 µM (inactive) | > 100 µM (inactive) | > 100 µM (inactive) | 99.3 µM (inactive) | > 100 µM (inactive) | 80.7 µM (inactive) | 18 µM (inactive) | > 100 µM (inactive) | > 100 µM (inactive) | 15 µM (inactive) | > 100 µM (inactive) |
| O=c1[nH]nc(Nc2ccc(Cl)cc2)c2nnn(C3CCCCC3)c12 | 36.6 µM (inactive) | > 100 µM (inactive) | > 100 µM (inactive) | 45.3 µM (inactive) | 26.5 µM (inactive) | > 100 µM (inactive) | 50.7 µM (inactive) | 26.7 µM (inactive) | > 100 µM (inactive) | 26.3 µM (inactive) | 37.4 µM (inactive) | > 100 µM (inactive) | 30.4 µM (inactive) | > 100 µM (inactive) | > 100 µM (inactive) | 86.7 µM (inactive) | > 100 µM (inactive) | 14.1 µM (inactive) | 41.4 µM (inactive) | 15.1 µM (inactive) |
| COc1cc(CCCOC(=O)/C=C/c2ccc(O)c(O)c2)cc(O)c1O | 25.2 µM (inactive) | > 100 µM (inactive) | 29.2 µM (inactive) | 56.4 µM (inactive) | 33.2 µM (inactive) | > 100 µM (inactive) | 27.4 µM (inactive) | 30.8 µM (inactive) | 27.9 µM (inactive) | 35.2 µM (inactive) | > 100 µM (inactive) | > 100 µM (inactive) | 73.6 µM (inactive) | 58.3 µM (inactive) | > 100 µM (inactive) | > 100 µM (inactive) | 22.8 µM (inactive) | 70.8 µM (inactive) | 49.8 µM (inactive) | 49 µM (inactive) |
| O=C1CC(c2n[nH]c3ccccc23)C(=O)N1c1ccccc1 (stereo not given) | > 100 µM (inactive) | > 100 µM (inactive) | > 100 µM (inactive) | > 100 µM (inactive) | 43.9 µM (inactive) | > 100 µM (inactive) | 82.8 µM (inactive) | 29.2 µM (inactive) | > 100 µM (inactive) | > 100 µM (inactive) | > 100 µM (inactive) | > 100 µM (inactive) | > 100 µM (inactive) | > 100 µM (inactive) | > 100 µM (inactive) | > 88.5 µM (inactive) | > 100 µM (inactive) | > 100 µM (inactive) | > 100 µM (inactive) | > 100 µM (inactive) |
| OCCN1CN(c2nc(N3CN(CCO)C3)nc(N3CN(CCO)C3)n2)C1 | 22.6 µM (inactive) | 23.6 µM (inactive) | 18 µM (inactive) | 22.2 µM (inactive) | 25.4 µM (inactive) | 18.9 µM (inactive) | 27.6 µM (inactive) | 20.5 µM (inactive) | 25.8 µM (inactive) | 23.1 µM (inactive) | 31.5 µM (inactive) | 23 µM (inactive) | 22.7 µM (inactive) | 17.7 µM (inactive) | 31.6 µM (inactive) | 24.8 µM (inactive) | 18.1 µM (inactive) | 45.6 µM (inactive) | 19.5 µM (inactive) | 23.8 µM (inactive) |
| C[C@H]1CCC2C(OC(=O)[C@@H]2CN(C)C)[C@]2(C)C(=O)C=CC12O (stereo not given in full) | 6.79 µM (inactive) | 10.8 µM (inactive) | 4.09 µM (inactive) | 3.26 µM (inactive) | 3.23 µM (inactive) | 4.86 µM (inactive) | 2.67 µM (inactive) | 1.87 µM (inactive) | 3.2 µM (inactive) | 4.6 µM (inactive) | 14.2 µM (inactive) | 22.9 µM (inactive) | 1.65 µM (inactive) | 2.43 µM (inactive) | 2.17 µM (inactive) | 7.01 µM (inactive) | 3.48 µM (inactive) | 1.57 µM (inactive) | 12.5 µM (inactive) | 5.26 µM (inactive) |
